According to patent US20230270781A1, “TREATMENT OR PREVENTION OF PRO-INFLAMMATORY DISEASES OR CONDITIONS USING INDUCED REGULATORY T (ITREG) CELLS” (RAPA THERAPEUTICS, LLC, priority 2020, published 2023):

Test system: T cell TCR specificities of peripheral blood mononuclear cells
Experiment: RNA-based T cell receptor repertoire profiling pre- and post-etanercept therapy
Format: in vivo, human
Text: (§1) FIGS. 23A & 23B depict the use of RNA-based T cell receptor sequencing to detect a widespread up- and down-regulation of T cell TCR specificities after therapy with the TNF-α inhibitor, etanercept. In FIG. 23, RNA was isolated from peripheral blood mononuclear cells from an patient pre- and post-therapy with etanercept therapy. The RNA was subjected to TCR repertoire profiling, as previously described by Rosati E, Dowds CM, Liaskou E, Henriksen EKK, Karlsen TH, Franke A. Overview of methodologies for T-cell receptor repertoire analysis. BMC Biotechnol. 2017;17(1):61.
as §1, with “FIGS. 36A-36B” for “FIGS. 23A & 23B”, “depict” for “depict the”, “In FIGS. 36A-36B,” for “In FIG. 23,”, “from a” for “from an”

[1] = patient PBMC, post- versus pre-etanercept

Substance: etanercept
- post-treatment frequencies of contracted T cell clones (SEQ ID NOs: 1-3 and 5) (decreased from frequencies of 259 to 598 pre-etanercept): 0.01
- TCR specificities down-regulated in the post-therapy sample [1]: approximately 25%
- TCR specificities up-regulated in the post-therapy sample [1]: approximately 25%
- T cell clonal contraction (post- versus pre-etanercept): more than 4 log
- T cell clonal expansion (post- versus pre-etanercept): more than 4 log
